Reference: patent publication US5981517A, “Androstene derivatives” (priority 1997, dated 1999)

Legend:
[1] = system: thymi; set-up: species or system male Sprague-Dawley rats; conditions: rat, in vivo, sc
Description: Several further studies were undertaken to determine the effects of a selected compound of the invention and prior art steroids on thymi weights in rats when the drugs were systemically administered. In each of these studies, male Sprague-Dawley rats were used. The test compounds were suspended in 0.5% CMC (carboxymethylcellulose) and injected subcutaneously once daily for three days. On the fifth day (48 hours following the last treatment), the animals were sacrificed and the thymi weights were recorded. Body weight gains were measured 24 hours after the last treatment. From the test results, the TED40 's (thymolytic effective doses, that is, doses required to achieve 40% inhibition of thymi weight) and relative potencies of a representative compound of the invention and reference steroids were calculated. […] It is evident that the higher the inhibition of thymus activity at a given dose, the more toxic the compound is.

[2] = system: granuloma / thymolysis; assay: Comparison of local effect and systemic side-effects (therapeutic index); format: in vivo, rat; conditions: granuloma relative potency / thymolysis relative potency
Description: The test compound was dissolved in acetone and aliquots of varying concentrations were injected into cotton pellets. The pellets were dried and then one pellet was implanted beneath the skin of each test rat. Six days later, the animals were sacrificed and the granulation tissue (granuloma) which formed in and around the implanted pellet was removed, dried and weighed. In addition, the thymi and adrenals were removed and weighed.
Several further studies were undertaken to determine the effects of a selected compound of the invention and prior art steroids on thymi weights in rats when the drugs were systemically administered. In each of these studies, male Sprague-Dawley rats were used. The test compounds were suspended in 0.5% CMC (carboxymethylcellulose) and injected subcutaneously once daily for three days. On the fifth day (48 hours following the last treatment), the animals were sacrificed and the thymi weights were recorded. Body weight gains were measured 24 hours after the last treatment.
The ED50 's calculated for the local cotton pellet granuloma assay and the TED40 's calculated on the basis of thymus inhibition testing as described above were used to arrive at relative potency and a therapeutic index for a representative species of the invention as compared to prior art steroids.

[3] = system: right ear of each mouse (croton oil challenge); assay: Ear edema test (croton oil, mice); format: in vivo; conditions: 6 h after croton oil challenge
Description: In treatment groups of mice, selected amounts of the test compound were dissolved in acetone containing 5% croton oil; then, 50 microliters of the solution were applied to the inner surface of the right ear of each mouse. A control group of mice was identically treated with vehicle only, i.e., 5% croton oil in acetone. Six hours after croton oil challenge, the thickness of each ear was measured.

[4] = system: skin; assay: Skin weight test, 10 days of topical treatment in the rat; format: in vivo, Male Sprague-Dawley rats; conditions: rat, in vivo
Description: Male Sprague-Dawley rats, weighing about 210 g, were lightly anesthetized with ether, shaved and marked in three areas on each flank with intradermally injected blue ink. […] Treated control animals received daily topical administration of the vehicle (DMF) alone. Solvent and test compound solutions (10 μL) were applied once daily for 10 consecutive days, with […] necessary. On the eleventh day, the animals were sacrificed, their skins were removed and 16 mm diameter plugs were punched out from each area. The plugs were scraped carefully to remove subcutaneous fat and muscle, then they were blotted on filter paper and weighed. Skin atrophy is a known side effect associated with topically applied anti-inflammatory steroids.

[5] = system: granulation tissue (granuloma); format: in vivo, rat
Description: The test compound was dissolved in acetone and aliquots of varying concentrations were injected into cotton pellets. The pellets were dried and then one pellet was implanted beneath the skin of each test rat. Six days later, the animals were sacrificed and the granulation tissue (granuloma) which formed in and around the implanted pellet was removed, dried and weighed. In addition, the thymi and adrenals were removed and weighed. The ability of a compound to inhibit granuloma formation in this test is a direct indication of local anti-inflammatory activity; thus, the lower the weight of granulation tissue, the better the anti-inflammatory activity.

| Structure (SMILES) | Thymolysis, Relative Potency at ED40 Level (b) [1] | Therapeutic Index (a/b) [2] | inhibition of swelling ([3]; 10 μg/mL) [%] | inhibition of swelling ([3]; 100 μg/mL) [%] | Wet skin weight, Treated, Decrease [4] [%] | Wet skin weight, Untreated, Decrease [4] [%] | local anti-inflammatory activity (inhibition of granuloma formation) ([5]; cotton pellet, 6 days) | systemic effect ([5]; rat, in vivo) |
| --- | --- | --- | --- | --- | --- | --- | --- | --- |
| CCCCC(=O)O[C@]1(C(=O)CO)[C@@H](C)C[C@H]2[C@@H]3CCC4=CC(=O)C=C[C@]4(C)[C@@]3(F)[C@@H](O)C[C@@]21C [Betamethasone 17-valerate, reference compound] | 100 | 1.0 |  |  |  |  |  |  |
| COC(=O)[C@@]1(OC(=O)C(Cl)Cl)[C@H](C)C[C@H]2[C@@H]3CCC4=CC(=O)C=C[C@]4(C)[C@@]3(F)[C@@H](O)C[C@@]21C [Compound I, methyl 17α-dichloroacetoxy-9α-fluoro-11β-hydroxy-16α-methylandrosta-1,4-dien-3-one-17β-carboxylate] | 156 | 7.10 | 37.4 | 92.1 | 11.6 | 11.2 | significant local anti-inflammatory activity | relatively much lower systemic effect |
